{"source": "patent US8664237B2", "about": "(The Johns Hopkins University, priority 2008, dated 2014)", "key": {"IB3-1 cells [1]": {"system": "IB3-1 cells", "experiment": "Fura-2 microscope calcium measurement in IB3-1 cells", "format": "cell-based, human", "details": "for effect of preincubation on the spiperone-induced Ca2+ increase: inhibitor given before spiperone; for spiperone Ca2+ response after prior addition of the analog: analog added prior to spiperone; for increase of intracellular Ca2+ / Ca2+ release: spiperone analogs, solution not stated", "description": ". A microscope-based fluorescence Ca^2+ measurement system was utilized in this study. First IB3-1 cells grown on a coverglass were bathed in the ECaT Ringer's which was used for the screen. […] In order to ascertain the origin of this sustained increase the experiment was repeated except with Ca^2+-free ECaT Ringer's solution, (See FIG. 8).\nUsing normal Ringers, a study was undertaken to determine whether the source of the increase in cytoplasmic Ca^2+ was indeed the endoplasmic reticulum (ER). As part of the normal Ca^2+ transit system across the ER, the Ca^2+-ATPase pumps Ca^2+ from the cytosol to the ER uphill against the concentration gradient. Other channels continue to cycle Ca^2+ from ER back to cytosol. Thapsigargin blocks the Ca^2+-ATPase, inhibiting the uphill uptake. […]\nPhospholipase C (PLC) is an intracellular enzyme that participates in calcium signaling pathways. […]. There are two major molecules that activate PLC pathways to release Ca^2+ from the ER. One is the G-protein coupled receptors. The second is the protein tyrosine kinase […]. […]. […] (FIG. 12G is the summary data of genistein treatment.) Lavendustin A is another protein tyrosine kinase inhibitor. […].\n(§1) Cells were seeded on the collagen-coated cover glass for 48 h. Cell Ca^2+ was measured with a dual excitation wavelength microscope system. Fura-2 fluorescence was excited at 340 nm and 380 nm with xenon light. Fluorescence was measured at 510 nm emission wavelength. Data was processed and analyzed using IPLab 4.0 software. Fluorescence data of each experiment were normalized to the individual basal fluorescence value ΔF/F0=(F−F0)/F0 to bring all the response curves to the same pretreatment starting point."}, "Calu-3 cells [2]": {"system": "Calu-3 cells", "experiment": "Short-circuit current measurement (Cl- secretion), Calu-3 monolayers", "format": "cell-based, human", "details": "for effect of channel blocker on spiperone-induced sustained Cl- release / effect of channel blocker on spiperone-induced transient Cl-: amiloride present; for Cl- current (short circuit current): normal Ringer's, Na+ absorption blocked with amiloride", "protocol": "(§2) An experiment was carried out to establish that the spiperone-induced increase of Ca^2+ would produce an increase in Cl^− transport relevant to CF, and that it would do so in CF relevant epithelial cells. Calu-3 and CFBE41o-cell monolayers were cultured on permeable filter support and “short circuit current” measurements were performed to evaluate the current produced by Cl^− in these cells.\n(§3) Na^+ is a positively charged ion and its absorption would interfere with the short circuit measurement for Cl^− secretion. Therefore, in normal Ringer's solution, Na^+ absorption across the cell membrane was blocked with amiloride. Cell monolayers were then exposed to the two relevant compounds: niflumic acid (NFA), which is a non-selective CaCCs blocker or to CFTRinh-172, which is a specific CFTR blocker.\n(§4) Calu-3 and CFBE41o-cells were cultured on Snapwell inserts until they formed a tight monolayer as monitored by measuring the transepithelial resistance. The bottom of the monolayer was taken out, mounted on the Ussing chamber and buffered by the testing solutions. The short-circuit current was measured by a VCC MC6 multichannel voltage/current clamp (Physiologic Instruments, San Diego, Calif.). Data were recorded and analyzed by Acquire and Analyze software."}, "[3]": {"details": "24 weeks of treatment, phase III trial, inhaled; cited from earlier work"}, "CFBE41o- cells [4]": {"system": "CFBE41o- cells", "experiment": "Short-circuit current measurement (Cl- secretion), CFBE41o- monolayers", "format": "cell-based, human", "details": "for Cl- secretion (short circuit current): normal Ringer's, amiloride", "protocol": "as §2, §3, §4"}, "IB3-1 cells [5]": {"system": "IB3-1 cells", "experiment": "Compound screening for calcium enhancers (Fura-2 fluorescence plate reader)", "text": "Thus for the ECaT Ringers, we eliminated Na^+ from the solution and replaced it completely by N-methyl-D-glucamine (NMDG) to maintain the solution osmolality to favor Ca^2+ for entry through the P2X receptor. We were searching for compounds that activate the P2X receptor channel or other Ca^2+ entry channels, as well as compounds that bind to membrane or cellular proteins which are involved in intracellular Ca^2+ regulation.\nCompounds were selected as potential hits if their change of fluorescence ratio fell within 3 SD of those obtained for zinc (ratio), and larger than that recorded for DMSO (ratio) +3SD. The average Z factor of all 25 plates is 0.6 for the 15 min detection. Hits were solely based on the change in the fluorescence ratio. Any compound that was highly auto-fluorescent was not considered further.\nWe further evaluated 37 hits manually using the Fluorescence Plate Reader system. […] Following this initial vetting process, the half-maximal effective concentration (EC50) was determined of each of the remaining 19 molecules. […] Compound Library: Library MSSP (Microsource Discovery Inc) was our source for compounds for the primary screening. The compounds were known bioactive compounds and natural products and their derivatives. The library contained 2,000 compounds on twenty-five 96-well plates, with 80 compounds tested per plate. In the master plates, each compound was suspended in DMSO at a concentration of 10 mM. A set of 96-well plates of the library in a concentration of 2 mM in DMSO was made prior to the screening.\nScreening Procedure: The screening was performed by the Johns Hopkins University High Throughput Biology Center Chemcore. […] The fluorescence ratio was measured in ECaT Ringer's solution by a Tecan Safire Fluorescence Plate Reader. […] The fluorescence ratio was measured again immediately after adding the compounds. The final fluorescence detection was done 15 min after the second detection in order to find compounds which stimulate the sustained Ca^2+ increase."}, "5-HT receptor": {"system": "5-HT receptor", "details": "canine tracheal epithelia, another study; cited from earlier work"}, "5-HT2 receptor": {"biological_target": "5-HT2 receptor (Homo sapiens, UniProt P28223)", "sequence (P28223 whole entry)": "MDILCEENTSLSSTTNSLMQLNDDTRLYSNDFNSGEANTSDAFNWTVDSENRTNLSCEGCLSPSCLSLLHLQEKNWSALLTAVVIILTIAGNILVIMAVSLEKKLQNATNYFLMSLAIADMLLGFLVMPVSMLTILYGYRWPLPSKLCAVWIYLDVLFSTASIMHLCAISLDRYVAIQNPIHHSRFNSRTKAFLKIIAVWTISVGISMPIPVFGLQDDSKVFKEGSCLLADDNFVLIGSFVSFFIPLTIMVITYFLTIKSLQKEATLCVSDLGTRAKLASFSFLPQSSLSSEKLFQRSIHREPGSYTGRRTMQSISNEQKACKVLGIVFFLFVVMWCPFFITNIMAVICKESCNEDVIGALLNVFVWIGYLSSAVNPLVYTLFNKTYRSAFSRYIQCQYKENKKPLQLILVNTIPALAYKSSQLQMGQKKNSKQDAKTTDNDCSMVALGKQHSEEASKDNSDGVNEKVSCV", "details": "antagonists; cited from earlier work"}, "dopamine D2 receptor": {"biological_target": "dopamine D2 receptor (Homo sapiens, UniProt P14416)", "sequence (P14416 whole entry, species assumed)": "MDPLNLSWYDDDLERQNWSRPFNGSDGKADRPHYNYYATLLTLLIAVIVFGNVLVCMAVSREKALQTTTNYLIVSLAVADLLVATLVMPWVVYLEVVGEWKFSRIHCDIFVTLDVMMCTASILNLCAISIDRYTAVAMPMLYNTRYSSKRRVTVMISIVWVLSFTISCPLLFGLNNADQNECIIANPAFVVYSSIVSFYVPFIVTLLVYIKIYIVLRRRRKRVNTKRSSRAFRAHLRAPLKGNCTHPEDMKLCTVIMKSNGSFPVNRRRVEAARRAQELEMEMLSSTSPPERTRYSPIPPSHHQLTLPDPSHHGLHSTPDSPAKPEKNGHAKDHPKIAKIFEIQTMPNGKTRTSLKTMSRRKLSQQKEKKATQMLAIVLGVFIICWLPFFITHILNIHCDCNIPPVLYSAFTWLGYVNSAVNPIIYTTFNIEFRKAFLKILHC", "details": "cited from earlier work"}, "[6]": {"system": "nasal epithelia of wild-type (C57B1/6) mice", "experiment": "Mouse nasal potential difference, wild-type C57B1/6 mice", "details": "after elimination of mucosal Cl-", "text": "Animals: The studies conducted were approved by the Johns Hopkins University Animal Care and Use Committee. […] Nasal Potential Difference (NPD): All mice were anesthetized with an IP injection of a ketamine and xylazine mixture (100 mcg/10 mcg per gram of body weight). […] Briefly, a high impedance voltmeter (World Precision Instruments, Sarasota, Fla.) was connected by silver-chloride pellet electrodes to an exploring nasal bridge and a reference subcutaneous bridge. The nasal bridge, a single polyethylene tube (PE10, 0.28 mm ID, Clay-Adams, B D, Sparks, Md.) was pulled to one-half its original diameter and cut at a 45 degree angle. The tubing was marked and inserted 5 mm from the tip of the nare. A paper tape flag indicated position and orientation of the tip. The subcutaneous bridge was a 25 GA Butterfly® (Abbott, Chicago, Ill.) needle containing Ringer's solution inserted subcutaneously in the right abdominal wall. Each solution was warmed to 37° C. and perfused to the nare for at least 3 minutes at 5 micro liters per minute using a perfusion pump. Following the procedure, the oral cavity was gently suctioned of perfusate and the mice were recovered to their cages. Voltmeter data (mV) was recorded by a PowerLab A/D converter connected to a PC running Chart software at 20 samples per second (AD Instruments, Colorado Springs, Colo.). […]"}, "[7]": {"system": "nasal epithelium of CFKO mice", "experiment": "Mouse nasal potential difference, CF (double transgenic CFKO) mice", "text": "In order to allow for later hyperpolarization from chloride secretion, their nasal epithelia were perfused with baseline Ringers with amiloride added to block the epithelial Na^+ channel. For the next perfusion, the Cl^− was removed by substituting Na^+ gluconate in the baseline Ringer's solution (FIG. 8), then removed Cl^− from the mucosa by perfusing the nare with that Ringer's.\nNasal Potential Difference (NPD): All mice were anesthetized with an IP injection of a ketamine and xylazine mixture (100 mcg/10 mcg per gram of body weight). […] Briefly, a high impedance voltmeter (World Precision Instruments, Sarasota, Fla.) was connected by silver-chloride pellet electrodes to an exploring nasal bridge and a reference subcutaneous bridge. The nasal bridge, a single polyethylene tube (PE10, 0.28 mm ID, Clay-Adams, B D, Sparks, Md.) was pulled to one-half its original diameter and cut at a 45 degree angle. The tubing was marked and inserted 5 mm from the tip of the nare. A paper tape flag indicated position and orientation of the tip. The subcutaneous bridge was a 25 GA Butterfly® (Abbott, Chicago, Ill.) needle containing Ringer's solution inserted subcutaneously in the right abdominal wall. Each solution was warmed to 37° C. and perfused to the nare for at least 3 minutes at 5 micro liters per minute using a perfusion pump. Following the procedure, the oral cavity was gently suctioned of perfusate and the mice were recovered to their cages. Voltmeter data (mV) was recorded by a PowerLab A/D converter connected to a PC running Chart software at 20 samples per second (AD Instruments, Colorado Springs, Colo.). A minimum of 400 data points (˜20 seconds) were used to calculate the mean voltage values."}, "NHBE": {"system": "NHBE", "experiment": "Fura-2 microscope calcium measurement in NHBE primary cells", "format": "cell-based, human", "details": "NHBE primary culture; Ca2+-free Ringers", "protocol": "as §1"}, "CFBE41o- cells [8]": {"system": "CFBE41o- cells", "experiment": "Fura-2 microscope calcium measurement in CFBE41o- cells", "format": "cell-based, human", "details": "CFBE41o- CF; Ca2+-free Ringers", "protocol": "as §1"}, "Calu-3 cells [9]": {"system": "Calu-3 cells", "experiment": "Fura-2 microscope calcium measurement in Calu-3 cells", "format": "cell-based, human", "details": "Calu-3 non-CF; Ca2+-free Ringers", "protocol": "as §1"}}, "data": [{"smiles": "NCCOB(c1ccccc1)c1ccccc1", "note": "[2APB]", "values": [{"measurement": "effect on the spiperone induced Ca2+ release from ER", "setting": "IB3-1 cells [1]; 100 μM, 30 minutes incubation, data not shown", "result": "totally blocked"}]}, {"smiles": "O=C(O)c1ccc(/C=C2\\SC(=S)N(c3cccc(C(F)(F)F)c3)C2=O)cc1", "note": "[CFTRinh-172]", "values": [{"measurement": "effect of channel blocker on spiperone-induced sustained Cl- release", "setting": "Calu-3 cells [2]", "result": "totally blocked"}, {"measurement": "effect of channel blocker on spiperone-induced transient Cl-", "setting": "Calu-3 cells [2]", "result": "reduced"}]}, {"smiles": "Nc1ccn([C@H]2C[C@H](O)[C@@H](COP(=O)(O)OP(=O)(O)OP(=O)(O)OP(=O)(O)OC[C@H]3O[C@@H](n4ccc(=O)[nH]c4=O)[C@H](O)[C@@H]3O)O2)c(=O)n1", "note": "[Denufosol, denufosol]", "values": [{"measurement": "improvement in lung function", "setting": "[3]", "result": 2.5, "unit": "%"}]}, {"smiles": "O=C(O)c1cccnc1Nc1cccc(C(F)(F)F)c1", "note": "[NFA, niflumic acid]", "values": [{"measurement": "effect of channel blocker on spiperone-induced sustained Cl- release", "setting": "Calu-3 cells [2]", "result": "totally blocked"}, {"measurement": "effect of channel blocker on spiperone-induced transient Cl-", "setting": "Calu-3 cells [2]", "result": "reduced"}, {"measurement": "effect of CaCC blocker on spiperone's effect on Cl- secretion", "setting": "CFBE41o- cells [4]", "result": "reduced significantly"}]}, {"smiles": "Cc1ccc(C(=O)Nc2ccc(S(=O)(=O)O)c3cc(S(=O)(=O)O)cc(S(=O)(=O)O)c23)cc1NC(=O)c1cccc(NC(=O)Nc2cccc(C(=O)Nc3cc(C(=O)Nc4ccc(S(=O)(=O)O)c5cc(S(=O)(=O)O)cc(S(=O)(=O)O)c45)ccc3C)c2)c1", "note": "[Suramin, suramin]", "values": [{"measurement": "effect of preincubation on the spiperone-induced Ca2+ increase", "setting": "IB3-1 cells [1]", "result": "did not reduce"}]}, {"smiles": "COc1ccc2c(c1)CC[C@@H]1[C@@H]2CC[C@]2(C)[C@@H](NCCCCCCN3C(=O)C=CC3=O)CC[C@@H]12", "note": "[U73122]", "values": [{"measurement": "effect of preincubation on the spiperone-induced Ca2+ increase", "setting": "IB3-1 cells [1]", "result": "diminished"}]}, {"smiles": "COc1ccc2c(c1)CC[C@@H]1[C@@H]2CC[C@]2(C)C(NCCCCCCN3C(=O)CCC3=O)CC[C@@H]12", "note": "(stereo partly shown) [U73433]", "values": [{"measurement": "effect of preincubation on the spiperone-induced Ca2+ increase", "setting": "IB3-1 cells [1]", "result": "did not"}]}, {"smiles": "[Zn]", "note": "[Zinc, zinc]", "values": [{"measurement": "increase in cytoplasmic Ca2+ (change in fluorescence ratio)", "setting": "IB3-1 cells [5]; ECaT Ringer's, plate reader", "result": "long lasting increase in cytoplasmic Ca^2+"}]}, {"smiles": "O=c1c(-c2ccc(O)cc2)coc2cc(O)cc(O)c12", "note": "[genistein]", "values": [{"measurement": "effect of preincubation on the spiperone-induced Ca2+ increase", "setting": "IB3-1 cells [1]", "result": "partially blocked"}]}, {"smiles": "O=C(CCCN1CCC(O)(c2ccc(Cl)cc2)CC1)c1ccc(F)cc1", "note": "[haloperidol]", "values": [{"measurement": "effect on spiperone-stimulated transepithelial Cl- currents", "setting": "Calu-3 cells [2]; analog given before spiperone", "result": "did not prevent spiperone from stimulating transepithelial Cl^− currents"}, {"measurement": "Cl- current (short circuit current)", "setting": "Calu-3 cells [2]", "result": "did not stimulate the Cl^− current"}, {"measurement": "spiperone Ca2+ response after prior addition of the analog", "setting": "IB3-1 cells [1]; Ca2+-free normal Ringer's", "result": "spiperone was still able to stimulate a transient increase in Ca^2+"}, {"measurement": "increase of intracellular Ca2+ / Ca2+ release", "setting": "IB3-1 cells [1]", "result": "did not release Ca^2+"}]}, {"smiles": "O=C(c1ccc(F)cc1)C1CCN(CCn2c(=O)[nH]c3ccccc3c2=O)CC1", "note": "[ketanserin]", "values": [{"measurement": "effect on 5-HT effects (inhibited Na+ absorption, stimulated Cl- secretion)", "setting": "5-HT receptor", "result": "blocked those effects"}, {"measurement": "spiperone Ca2+ response after prior addition of the analog", "setting": "IB3-1 cells [1]; Ca2+-free normal Ringer's", "result": "spiperone was still able to stimulate a transient increase in Ca^2+"}, {"measurement": "increase of intracellular Ca2+ / Ca2+ release", "setting": "IB3-1 cells [1]", "result": "did not increase intracellular Ca^2+"}, {"measurement": "affinity for the 5-HT2 receptor", "setting": "5-HT2 receptor", "result": "high affinity"}, {"measurement": "antagonism of the dopamine receptor", "setting": "dopamine D2 receptor", "result": "very weakly antagonistic"}]}, {"smiles": "O=C(O)c1cc(N(Cc2ccccc2O)Cc2cc(O)ccc2O)ccc1O", "note": "[lavendustin A]", "values": [{"measurement": "effect on the increase in Ca2+ induced by spiperone", "setting": "IB3-1 cells [1]; 10 μM, data not shown", "result": "significantly diminished"}]}, {"smiles": "O=C(CCCN1CCC2(CC1)C(=O)NCN2c1ccccc1)c1ccc(F)cc1", "note": "[spiperone]", "values": [{"measurement": "spiperone concentrations at which the Ca2+ stimulation is reduced", "setting": "IB3-1 cells [5]; higher concentrations, inhibition", "result": "> 50", "unit": "µM"}, {"measurement": "spiperone concentrations that stimulate cytoplasmic Ca2+", "setting": "IB3-1 cells [5]; lower concentrations, activation", "result": "less than 50 μM"}, {"measurement": "nasal potential difference / Cl- conductance", "setting": "[6]", "result": "did not induce any further hyperpolarization"}, {"measurement": "Cl- secretion", "setting": "Calu-3 cells [2]; 20 μM, monolayers", "result": "stimulated Cl^− secretion"}, {"measurement": "amount of spiperone required to induce Cl- secretion", "setting": "Calu-3 cells [2]; \"our study\", airway epithelial cells", "result": "at least 1 μmol"}, {"measurement": "Cl- current (short circuit current)", "setting": "Calu-3 cells [2]", "result": "a transient and then a sustained Cl^− current"}, {"measurement": "nasal potential difference / Cl- conductance", "setting": "[7]; 1 μM in Zero Cl- baseline Ringer's, after amiloride, nasal perfusion", "result": "hyperpolarized the mouse nasal potential significantly"}, {"measurement": "nasal potential difference", "setting": "[7]; 1 μM, after 19 min of sustained perfusion", "result": "remained significantly hyperpolarized"}, {"measurement": "nasal potential difference / Cl- conductance", "setting": "[7]; subsequent increase to 20 μM", "result": "did not boost Cl^− conductance"}, {"measurement": "change in cytoplasmic Ca2+", "setting": "IB3-1 cells [1]; Ca2+-free ECaT Ringer's", "result": "only a transient increase in cytoplasmic Ca^2+"}, {"measurement": "change in cytoplasmic Ca2+", "setting": "IB3-1 cells [1]; Ca2+-free normal Ringer's", "result": "only a transient increase in Ca^2+"}, {"measurement": "change in cytoplasmic Ca2+", "setting": "IB3-1 cells [1]; ECaT Ringer's", "result": "sustained increase in Ca^2+"}, {"measurement": "cytosolic Ca2+ response to thapsigargin after spiperone", "setting": "IB3-1 cells [1]; cells treated with spiperone before thapsigargin, normal Ringers", "result": "no increase in cytosolic Ca^2+"}, {"measurement": "change in cytoplasmic Ca2+", "setting": "IB3-1 cells [1]; normal Ringer's", "result": "only a transient increase in Ca^2+"}, {"measurement": "affinity for the 5-HT2 receptor", "setting": "5-HT2 receptor", "result": "high affinity"}, {"measurement": "change in Ca2+", "setting": "NHBE", "result": "transient increase in Ca^2+"}, {"measurement": "change in Ca2+", "setting": "CFBE41o- cells [8]", "result": "transient increase in Ca^2+"}, {"measurement": "Cl- secretion", "setting": "CFBE41o- cells [4]; 20 μM, monolayers", "result": "stimulated Cl^− secretion"}, {"measurement": "Cl- secretion (short circuit current)", "setting": "CFBE41o- cells [4]", "result": "only a transient Cl^− secretion"}, {"measurement": "Cl- transit on spiperone applied after thapsigargin", "setting": "CFBE41o- cells [4]; subsequent to thapsigargin", "result": "failed to stimulate any additional Cl^− transit"}, {"measurement": "change in Ca2+", "setting": "Calu-3 cells [9]", "result": "transient increase in Ca^2+"}, {"measurement": "affinity for the dopamine D2 receptor", "setting": "dopamine D2 receptor; antagonists", "result": "high affinity"}]}, {"smiles": "C/C=C(/C)C(=O)O[C@H]1C(C)=C2[C@H]([C@@H]1OC(=O)CCCCCCC)[C@@](C)(OC(C)=O)C[C@H](OC(=O)CCC)[C@@]1(O)[C@H]2OC(=O)[C@@]1(C)O", "note": "[thapsigargin]", "values": [{"measurement": "change in cytoplasmic Ca2+", "setting": "IB3-1 cells [1]; normal Ringer's", "result": "net increase in Ca^2+ in the cytosol"}, {"measurement": "Cl- secretion (short circuit current)", "setting": "CFBE41o- cells [4]", "result": "transient increase in Cl^− secretion"}]}]}
